From patent publication US8501725B2, “Synergistic combination of flumetsulam or diclosulam with zinc pyrithione” (Dow Global Technologies LLC, priority 2010, dated 2013) come the findings set out here.

Read-outs that look alike come from different tables or passages of the source.

The term % inhibition denotes the percentage by which the read-out fell short of the control.

Common to all, as to type: cell-based
The test system of test [1] is Aa + Tv + An + Pf + Ap + Ch. Briefly: Fungal efficacy testing, modified ASTM 5590, paint film (Diclosulam + ZPT study, single pool of all fungi). Conditions: four weeks; for % inhibition: at the Total conc given; for Total conc: in acrylic latex paint, dry film, 30 C. How it is done: (§1) Sample preparation: A single or blend of biocides was post added into white acrylic latex paint free of biocides to give a maximum total active ingredient/s concentration tested. This paint was then diluted with a biocide free acrylic latex paint to give targeted concentrations for the testing. Depending on the type of biocide blends tested, the total biocides concentrations varies from 200 to 5000 ppm. After biocides addition or dilution, each sample was hand mixed for at least a minute until uniformity is achieved. Each of the paint samples as well as a control sample (containing no biocide) were used to prepare films on black plastic-vinyl chloride/acetate copolymer panels (LENETA, Mahwah, N.J.) using a 3 mil (0.0762 mm) bird bar applicator. The panels were thoroughly dried for at least 2 days avoiding direct exposure to sunlight. Square discs ([…]) were cut out from each panel and were used as the substrate for fungal and algal efficacy tests. This sample size allowed for an agar border when the sample disc was placed into the well of the test plate. Each sample was tested in duplicate
(§2) Test conditions: The appropriate media (BOLD'S 3N for Chlorophytes, BG-11 for Cyanobacteria, and PDA for fungi) were used to support microbial growth. The test plates were maintained at room temp (25° C.-26° C.), in a cycled light-dark environment, for four weeks for algae. Plates for fungal challenge tests were maintained at 30 C for four weeks. At the end of the incubation period the samples were scored for percent area covered by visible microbial growth.
ASTM 5590 is a standard accelerated test method for determining resistance of various coatings (including paints) to fungal defacement. To accommodate for high-throughput screening, this method was scaled down from petri plates to 6-well plates. To set up the test, an agar plug was placed at the bottom of each well of the sterile 6-well plate. A single coupon was placed with a pair of sterile forceps at the center of the agar plug (on top) with the painted surface facing upwards. Fungal inoculums were prepared by mixing equal concentrations (1×10^6 cfu/ml) and equal volumes (depending on number of samples to be tested) of like growing organisms. For Flumetsulam+various IT synergy study, three pools of mixed fungi were prepared as the test inoculum. Cladosporium herbarum was mixed with Aureobasidium pullulans; Aspergillus niger was mixed with Penicillium funiculosum and Alternaria alternata was mixed with Trichoderma viride. For Diclosulam+various IT synergy study, all above fungi were mixed as a single pool. […] The total percent area covered was evaluated and recorded at the end of each week after the 2nd week and recorded in increments of 5%.
(§3) The SI is calculated based on F. C. […]

The test system of test [2] is Chlorella sp., Chlorella kessleri, Nostoc commune, Trentepohlia aurea, Tretepohlia odorata, and Calotrix parientina (Cp + To + Ta + Cs + Ck + Nc). Briefly: Algal efficacy testing, modified ASTM 5589, paint film (Diclosulam + ZPT study). The note with it: four weeks; for % inhibition: at the Total conc given. How it is done:
as §1, §2
(§4) ASTM 5589 is a standard accelerated test method for determining resistance of various coatings (including paints) to algal defacement. To accommodate for high-throughput screening, this method was scaled down from petri plates to 6-well plates. A single coupon was placed with a pair of sterile forceps at the center of the agar plug (on top) with the painted surface facing upwards. Algal inoculums were prepared by mixing equal concentrations (1×10^6 cfu/ml) and equal volumes (depending on number of samples to be inoculated) of like growing organisms.
(§5) In Diclosulam+various IT synergy study, only two pools of mixed algae were prepared; Gloeocapsa sp. and Oscillatoria sp. grown on BG-11 media and Chlorella sp., Chlorella kessleri, Nostoc commune, Trentepohlia aurea, Tretepohlia odorata, and Calotrix parientina grown on Bold media
(§6) Each well that contains a tested coupon was inoculated with 400 μl of organism mixture (1×10^6 cfu/ml) making sure that the whole surface (paint film as well as the agar surrounding it) was evenly covered. […] The total area covered was evaluated at the end of each week according to percent area covered in 5% increments.
as §3

Assay in test [3]: as above
Conditions: Nostoc commune, 672 h; Cp + To + Ta + Cs + Ck + Nc; in acrylic latex paint, dry film; four weeks; read-out: Total conc (minimum inhibitory concentration chosen for SI). How it is done:
as §1, §2, §4, §5, §6, §3

In test [4] the test system is Gloeocapsa sp. and Oscillatoria sp. (Gs + Os). Briefly: Algal efficacy testing, modified ASTM 5589, paint film (both studies). Conditions: four weeks; for MIC: 672 h, read-out: Total conc (minimum inhibitory concentration chosen for SI); for MIC / Total conc (minimum inhibitory concentration chosen for SI): in acrylic latex paint, dry film; for % inhibition: at the Total conc given. How it is done: as §1, §2, §4
(§7) In Flumetsulam+various IT synergy study, three pool of mixed algae were prepared as the test inoculum, Gloeocapsa sp. and Oscillatoria sp. a mix of cyanobacteria grown on BG-11 media; Chlorella sp., Chlorella kessleri, and Nostoc commune are unicellular chlorphytes that were mixed and grown on Bold media; Trentepohlia aurea, Tretepohlia odorata, and Calotrix parientina are filamentous algae that were mixed and grown on Bold media.
as §5
(§8) Each well that contains a tested coupon was inoculated with 400 μl of organism mixture (1×10^6 cfu/ml) making sure that the whole surface (paint film as well as the agar surrounding it) was evenly covered. The plates were incubated at room temp (25° C.-26° C.) with cyclic exposure to light (OTT-Lite model # OTL4012P, 40 Watt, 26KLumen) and dark phases, for a period of four weeks. The total area covered was evaluated at the end of each week according to percent area covered in 5% increments.
(§9) The SI is calculated based on F. C.
(§10) NE=no end point at the concentration tested that will meet the percent inhibition criteria set in each SI calculation

Test [5] deals with Trentepohlia aurea, Tretepohlia odorata, and Calotrix parientina (Cp + To + Ta). As to the kind of experiment: Algal efficacy testing, modified ASTM 5589, paint film (Flumetsulam + ZPT study). The note with it: four weeks; for % inhibition: at the Total conc given; for Total conc (minimum inhibitory concentration chosen for SI): in acrylic latex paint, dry film, 25-26 C, light-dark. As to the method: as §1, §2, §4, §7, §8, §9, §10

Test [6] concerns Chlorella sp., Chlorella kessleri, and Nostoc commune (Cs + Ck + Nc). Described as above. Conditions: four weeks; for % inhibition: at the Total conc given. As to the method:
as §1, §2, §4, §7, §8, §9, §10

In test [7] the test system is Alternaria alternata mixed with Trichoderma viride (AaTv). As to the kind of experiment: Fungal efficacy testing, modified ASTM 5590, paint film (Flumetsulam + ZPT study). The note with it: four weeks; for % inhibition: at the Total conc given. As to the method: as §1, §2
(§11) ASTM 5590 is a standard accelerated test method for determining resistance of various coatings (including paints) to fungal defacement. To accommodate for high-throughput screening, this method was scaled down from petri plates to 6-well plates. To set up the test, an agar plug was placed at the bottom of each well of the sterile 6-well plate. A single coupon was placed with a pair of sterile forceps at the center of the agar plug (on top) with the painted surface facing upwards. Fungal inoculums were prepared by mixing equal concentrations (1×10^6 cfu/ml) and equal volumes (depending on number of samples to be tested) of like growing organisms. For Flumetsulam+various IT synergy study, three pools of mixed fungi were prepared as the test inoculum. Cladosporium herbarum was mixed with Aureobasidium pullulans; Aspergillus niger was mixed with Penicillium funiculosum and Alternaria alternata was mixed with Trichoderma viride. For Diclosulam+various IT synergy study, all above fungi were mixed as a single pool. Each well was inoculated with 400 μl of organism mixture (1×10^6 cfu/ml) making sure that the whole surface (paint film as well as the agar surrounding it) was evenly covered. The plates were incubated at 30° C. in presence of moisture, for a period of four weeks. The total percent area covered was evaluated and recorded at the end of each week after the 2nd week and recorded in increments of 5%.
as §9, §10

Test [8] deals with Cladosporium herbarum mixed with Aureobasidium pullulans (ApCh). The test is described as above. Conditions: four weeks; for % inhibition: at the Total conc given. As to the method:
as §1, §2, §11, §9, §10

For test [9], the system named is Aspergillus niger mixed with Penicillium funiculosum (AnPf). The test is described as above. The note with it: four weeks; for % inhibition: at the Total conc given. As to the method:
as §1, §2, §11, §9, §10

[10] abbreviates: in acrylic latex paint, dry film, 30 C.

Regarding `CCOc1nc(F)cc2nc(S(=O)(=O)Nc3c(Cl)cccc3Cl)nn12` [Diclosulam, N-(2,6-dichlorophenyl)-5-ethoxy-7-fluoro[1,2,4]triazolo[1,5-c]pyrimidine-2-sulfonamide], the “% inhibition” value in test [1] is listed as 0%; in test [2], 80%; in test [4] (Diclosulam and ZPT study), 100%. Moreover, the Total conc in test [1] is recorded as 3500 ppm. Further, the MIC in test [3] was 3500 µg/mL; in test [4] (Diclosulam and ZPT study), 438 µg/mL.

As to `Cc1ccn2nc(S(=O)(=O)Nc3c(F)cccc3F)nc2n1` [Flumetsulam, N-(2,6-difluorophenyl)-5-methyl[1,2,4]triazolo[1,5-a]pyrimidine-2-sulfonamide], the “% inhibition” value in [5] came to 100%; in test [6], 90%; in test [4] (Flumetsulam and ZPT study), 0%; in test [7], 0%; in test [8] it was 25%; in [9], 0%. Further, the “Total conc (minimum inhibitory concentration chosen for SI)” value in [5] stood at 2625 ppm. The MIC was found to be 3500 µg/mL in [6] (Nostoc commune, 672 h, in acrylic latex paint, dry film, 25-26 C, light-dark, read-out: Total conc (minimum inhibitory concentration chosen for SI)); 2620 µg/mL in test [4] (Flumetsulam and ZPT study); 3500 µg/mL in test [7] (Alternaria alternata, 672 h, in acrylic latex paint, dry film, 30 C, NE = no end point at the concentration tested, read-out: Total conc (minimum inhibitory concentration chosen for SI)); 3500 µg/mL in [8] (Cladosporium herbarum, 672 h, in acrylic latex paint, dry film, 30 C, read-out: Total conc (minimum inhibitory concentration chosen for SI)); 3500 µg/mL in [9] (Aspergillus niger, 672 h, in acrylic latex paint, dry film, 30 C, read-out: Total conc (minimum inhibitory concentration chosen for SI)).

As for zinc pyrithione [ZPT], the “% inhibition” value was 0% in test [1]; 100% in [5]; 100% in test [6]; 100% in test [2]; 100% in [4] (Diclosulam and ZPT study); 100% in test [4] (Flumetsulam and ZPT study). Further, the “% inhibition” value was determined as 50% in test [7], 100% in test [8] and 100% in test [9]. In addition, the Total conc in test [1] stood at 5000 ppm. Moreover, the “Total conc (minimum inhibitory concentration chosen for SI)” value in test [5] came to 625 ppm; in test [6] (in acrylic latex paint, dry film, 25-26 C, light-dark), 625 ppm; in test [2] (in acrylic latex paint, dry film), 625 ppm; in [4] (Diclosulam and ZPT study) it was 625 ppm; in test [4] (Flumetsulam and ZPT study) it was 625 ppm; in test [7] (in acrylic latex paint, dry film, 30 C, NE = no end point at the concentration tested) it was 5000 ppm. The “Total conc (minimum inhibitory concentration chosen for SI)” value in [8] (setting [10]) and in [9] (setting [10]) was 625 ppm in each case.
